{"source": "patent US20060122588A1", "about": "“Cryosurgery compositions and methods” (Regents of the University of Minnesota, priority 2002, published 2006)", "key": {"[1]": {"conditions": "cited from earlier work; for Eutectic Temp. / % Eutectic Concentration (wt./wt.): solute in water; for Eutectic Concentration: Table 1, salts used to induce eutectic crystallization"}, "AT-1 tumor tissues": {"system": "AT-1 tumor tissues", "experiment": "Histology of AT-1 tumor tissues 2 days after freezing experiments on the directional solidification stage", "parameters": "species or system rat", "conditions": "frozen to −20° C., 400×", "experimental": "FIGS. 7A-7F show images of histology preparations of AT-1 tumor tissues 2 days after the freezing experiments on the directional solidification stage. Control tissues are very similar in all cases (FIGS. 7A, 7C, and 7E). Some cytoplasmic retraction is seen after salt infusion in FIGS. 7C and 7E over the control sample (FIG. 7A), but overall viability appears high. After freezing the samples to −20° C., a reduction in the number and quality of nuclei in all frozen samples is noted (FIGS. 7B, 7D, and 7F). Nuclear changes include darkening, reduction in size of chromatin, pykonsis and in some cases loss of nuclear material. In addition, cell membranes in frozen salt infused samples are indistinct and difficult to identify. All of these changes appear accentuated in the KNO3 and KCl infused samples."}, "[2]": {"system": "AT-1 rat prostate tumor cells", "experiment": "Post-thaw viability with half eutectic concentration KNO3 solution (Example 4)", "format": "cell-based", "experimental": "(§1) In freezing experiments with cell suspensions, a half eutectic concentration solution was mixed with cell culture media (Dulbecco's Modified Eagle's Medium/F-12) in 1 (salt solution): 2 (culture media) volume ratio.\nAT-1 rat prostate tumor cells were cultured in vitro, as described above. Cultured AT-1 cells were separated from a culture flask by immersion in 0.05% (by volume) trypsin and 0.53 mM EDTA, and then suspended in 5% (by volume) fetal bovine serum (FBS)-supplemented medium such that the final trypsin concentration was <0.005% (by volume). After the separation, the cells were pelleted by centrifugation and the excess medium was removed. The cell pellet was re-suspended into various aqueous solutions (about 1.0 ml) before experiments and nominal cell concentration was about 2×10^6 cells/ml. The suspensions were stored in 1.5 ml microcentrifuge tube on ice (about 4° C.).\nLiver tissues were also isolated from the rats.\nThe directional solidification stage, as described above, was used in the experiments. Controlled cooling and thawing rate were achieved by the DSC and directional solidification stage. Unless otherwise mentioned, cooling and thawing rates were 50° C./min.\nFor the directional solidification stage, fast thawing rates (about 200° C./min) were employed. […]\nPost-thaw viabilities of AT-1 cell suspensions in various media were assessed. […]"}, "[3]": {"system": "AT-1 rat prostate tumor cells", "experiment": "Post-thaw viability of AT-1 cell suspensions in various media on the directional solidification stage (Hoechst/Propidium Iodide membrane integrity assay)", "format": "cell-based", "conditions": "end temperature −30° C., 5° C./minute", "experimental": "as §1\nAT-1 rat prostate tumor cells were cultured in vitro under standard tissue culture conditions, as are known. AT-1 cells were suspended in each eutectic changing solution, and kept at about 4° C.\nCultured AT-1 cells were separated from a culture flask by immersion in 0.05% (by volume) trypsin and 0.53 mM EDTA, and then suspended in 5% (by volume) fetal bovine serum (FBS)-supplemented medium such that the final trypsin concentration was <0.005% (by volume). After the separation, the cells were pelleted by centrifugation and the excess medium was removed. […]\nPost-thaw viabilities of AT-1 cell suspensions in various media were assessed for varying end temperature of the freezing and thawing protocol on the directional solidification stage. […]\nThe concentrations of these solutions were determined so that the use of these solutions would not result in excessive killing of the AT-1 cells due to high osmotic pressure. […]\nViability of the AT-1 cell suspensions was measured by a membrane integrity assay using Hoechst and Propidium Iodide. […] After incubation, viability was assessed under a fluorescent microscope by scoring more than 200 cells for each sample."}, "[4]": {"experiment": "Onset temperature of eutectic solidification of AT-1 cell suspension media by DSC", "format": "physicochemical", "conditions": "AT-1 cell suspension medium", "experimental": "Controlled cooling and thawing rate were achieved by the DSC and directional solidification stage. Unless otherwise mentioned, cooling and thawing rates were 5° C./min.\nThe onset temperature of the eutectic solidification was measured using the DSC, as described herein. Generally speaking, the viability of the AT-1 cells in the suspension solutions decreased with end temperature regardless of the media used. Note that the temperatures of noticeable viability drop to coincide with the eutectic crystallization temperatures of each suspension media. When the viability of the AT-1 cell suspension in the 1×NaCl (the onset of eutectic crystallization at about […]) is compared with that of KCl infused AT-1 cell suspension (the onset of eutectic crystallization at about −21° C.), there is 70% less viability at −30° C. in the KCl infused AT-1 cell suspension."}}}
{"smiles": "[Br-].[K+]", "note": "[KBr]", "values": [{"measurement": "Eutectic Temp.", "setting": "[1]", "result": "−13.0", "unit": "°C"}]}
{"smiles": "O=[N+]([O-])[O-].[K+]", "note": "[KNO3, potassium nitrate]", "values": [{"measurement": "histological changes after freezing (nuclei, cell membranes)", "setting": "AT-1 tumor tissues", "result": "accentuated"}, {"measurement": "post-thaw viability", "setting": "[2]; frozen to about −20° C.", "result": "15.2±7.1", "unit": "%"}, {"measurement": "viability of control samples", "setting": "[2]; no freeze/thaw procedure", "result": 92.1, "unit": "%"}, {"measurement": "Eutectic Concentration", "setting": "[1]", "result": 10.9, "unit": "% wt./wt."}, {"measurement": "% Eutectic Concentration (wt./wt.)", "setting": "[1]", "result": "10.9% (wt./wt.)"}, {"measurement": "Eutectic Temp.", "setting": "[1]", "result": "−2.9", "unit": "°C"}]}
{"smiles": "O=S(=O)([O-])[O-].[Mg+2]", "note": "[MgSO4]", "values": [{"measurement": "% Eutectic Concentration (wt./wt.)", "setting": "[1]", "result": "19.0% (wt./wt.)"}, {"measurement": "Eutectic Temp.", "setting": "[1]", "result": "−3.9", "unit": "°C"}]}
{"smiles": "[Ca+2].[Cl-].[Cl-]", "note": "[CaCl2]", "values": [{"measurement": "% Eutectic Concentration (wt./wt.)", "setting": "[1]", "result": "29.8 % (wt./wt.)"}, {"measurement": "Eutectic Temp.", "setting": "[1]", "result": "−55", "unit": "°C"}]}
{"smiles": "Cl.N", "note": "[NH4Cl]", "values": [{"measurement": "% Eutectic Concentration (wt./wt.)", "setting": "[1]", "result": "18.6 % (wt./wt.)"}, {"measurement": "Eutectic Temp.", "setting": "[1]", "result": "−15.8", "unit": "°C"}]}
{"smiles": "[Cl-].[Cl-].[Mg+2]", "note": "[MgCl2]", "values": [{"measurement": "% Eutectic Concentration (wt./wt.)", "setting": "[1]", "result": "21.6 % (wt./wt.)"}, {"measurement": "Eutectic Temp.", "setting": "[1]", "result": "−33.6", "unit": "°C"}]}
{"smiles": "[Cl-].[K+]", "note": "[KCl, potassium chloride]", "values": [{"measurement": "less viability than AT-1 cell suspension in 1×NaCl", "setting": "[3]", "result": 70, "unit": "%"}, {"measurement": "onset of eutectic crystallization", "setting": "[4]", "result": "about −21 °C"}, {"measurement": "histological changes after freezing (nuclei, cell membranes)", "setting": "AT-1 tumor tissues", "result": "accentuated"}, {"measurement": "Eutectic Concentration", "setting": "[1]", "result": 19.7, "unit": "% wt./wt."}, {"measurement": "% Eutectic Concentration (wt./wt.)", "setting": "[1]", "result": "19.7% (wt./wt.)"}, {"measurement": "Eutectic Temp.", "setting": "[1]", "result": "−11.1", "unit": "°C"}]}
{"smiles": "OC[C@H]1O[C@@](CO)(O[C@H]2O[C@H](CO)[C@@H](O)[C@H](O)[C@H]2O)[C@@H](O)[C@@H]1O", "note": "[Sucrose]", "values": [{"measurement": "% Eutectic Concentration (wt./wt.)", "setting": "[1]", "result": "62.5 % (wt./wt.)"}, {"measurement": "Eutectic Temp.", "setting": "[1]", "result": "−13.5", "unit": "°C"}]}
{"smiles": "[Cl-].[Na+]", "note": "[NaCl, sodium chloride]", "values": [{"measurement": "Eutectic Concentration", "setting": "[1]", "result": 23.6, "unit": "% wt./wt."}, {"measurement": "% Eutectic Concentration (wt./wt.)", "setting": "[1]", "result": "23.6% (wt./wt.)"}, {"measurement": "Eutectic Temp.", "setting": "[1]", "result": "−21.8", "unit": "°C"}, {"measurement": "eutectic point of the solution", "setting": "[1]; thermodynamic equilibrium", "result": "approximately −21.1 °C"}]}
